Measured values from US9040673B2, “Synthesis and identification of novel RSK-specific inhibitors” (University of Virginia Patent Foundation, priority 2009, dated 2015).

System: Ha-Ras transformed NIH/3T3 cells
Experiment: proliferation of Ha-Ras transformed NIH/3T3 cells
Assay type: cell-based
Description: FIGS. 7A & 7B. SL0101-1 inhibition of cell proliferation is reversible. FIG. 7A: Ha-Ras-transformed cells were treated with vehicle or 50 μM SL0101-1. After 48 hr the medium was replaced and cells previously incubated with vehicle were maintained in vehicle. Cells that had previously been incubated with SL0101-1 were treated with either SL0101-1 or vehicle (washout). Cell viability was measured 48 hr later. FIG. 7B: Determination of siRNA to inhibit cancer cell proliferation. Duplex siRNAs to a sequence in the bluescript plasmid (Control), RSK1, RSK2 or RSK1 and RSK2 were transfected into MCF-7 cells. Medium was replaced 24 hr post-transfection and the cells incubated for an additional 48 hr prior to measuring cell viability.
The importance of MAPK to proliferation and oncogenesis is well established. However, the role that RSK plays in these processes has not been examined. […] SL0101-1 produced striking morphology changes in the transformed cells but not in the parental cell line. The vehicle control treated Ha-Ras transformed cells were elongated whereas in response to SL0101-1 the cells became much larger and flatter, appearing more like the parental cells, or like Ha-Ras transformed cells treated with U0126.
Cell Culture. […] Cell viability was measured at indicated time points using CellTiter-Glo™ assay reagent (Promega) according to manufacturer's protocol. […]

CC(=O)O[C@@H]1[C@@H](OC(C)=O)[C@@H](O)[C@H](Oc2c(-c3ccc(O)cc3)oc3cc(O)cc(O)c3c2=O)O[C@H]1C [SL0101, kaempferol 3-O-(3″,4″-di-O-acetyl-α-L-rhamnopyranoside)]
growth rate of Ha-Ras transformed cells: decreased the growth rate | reversibility of growth inhibition (washout) (50 μM for 48 hr, then washout, viability 48 hr later): Removal of SL0101-1 resulted in growth of the transformed cells
